Source: patent US7314969B2, “Methods and compositions for the introduction of molecules into cells” (priority 1999, dated 2008)
Where two headings read alike, the source gives them in different places.

What was measured:
[1] = tested on: embryogenic soybean callus; assay: Effect of media constituents on growth of embryogenic soybean callus in B1-30; format: cell-based
From the text: In another embodiment of the present invention, a novel culture media may be used to stimulate high frequency production of embryogenic soybean callus. Improvement varied with the genotype being cultured. […] The inclusion of one or more of four media constituents, coconut water, myoinositol, phytic acid and inorganic phosphate concentration, enhanced embryogenic callus production and allowed significant improvements to be made to transgenic clone production in terms of number of clones recovered, embryo morphology, and reduction in the time needed to identify the clones and regenerate plants from them. The medium of Ranch et al., 1985 (referred to herein as B1-30) was used as the basal medium. An example of the medium of the present invention is B1-30 3Co5My0.25PA0.5K (footnote, Table 5). Although this medium is a preferred emobodiment of growth medium, other conventional media may be utilized in the practice of the invention.
Coconut water has been included in tissue culture media for over 50 years. Coconut water is liquid taken from coconuts to promote growth in plant tissue cultures. It is deproteinized then filter-sterilized. An example is Sigma Biosciences' Cat. No. C5915. […] Most commonly coconut water is used at concentrations of between 5% and 10% by volume of the final culture medium. The role of coconut water in stimulating the growth of embryogenic callus in soybean was investigated and it was discovered that its effect on cotyledon explants routinely used to initiate embryogenic callus of soybean was detrimental when tested at these concentrations.
One key component of coconut water is myoinositol (Pollard et al., 1961). In an attempt to improve the growth of embryogenic soybean callus with components of coconut water, it was discovered that myoinositol was effective in this regard. Myoinositol has been included in tissue culture media for a variety of plant species. Although apparently not required for all species (Halperin, 1966), it is routinely included in media such as the widely used Murashige and Skoog formulation (Murashige and Skoog, 1962) at a concentration of 100 mg/l. It is at this concentration that it has been included in media used for the culture of embryogenic callus of soybean (e.g., see Ranch et al., 1985).
There are no known reports of the inclusion of phytic acid in culture media for any plant species. Soybean seeds are rich in natural chelating agents, the most prominent of which is phytic acid (Gibson and Ullah, 1990). Substantial amounts of phosphate are stored in seeds in the form of phytate (Raboy, 1990). It is possible that the capacity of phytic acid to sequester inorganic phosphate has a significant impact upon C partitioning into either starch or sucrose. At 1 gm/l in B1-30, embryogenic callus of a range of genotypes exuded starch, possibly confirming the impact of phytic acid on C partitioning. […] Best results over many passages were obtained with the addition of about 5 mg/l to about 250 mg/l phytic acid to the culture medium depending on the genotype.
Inorganic phosphorous in the form of KH2PO4, in excess of the amount conventionally used, was added to the base medium (B1-30) along with myoinositol and coconut water. This medium was tested against B1-30 supplemented with phytic acid in addition to KH2PO4, myoinositol and coconut water.

DH5 cells = format: cell-based, E. coli; conditions: 10 mg/l tetracycline
Protocol: One microgram of supercoiled pSB1 was added to 1.0 ml of sterile ddH2O and briefly vortexed. […] For a control SB1 plasmid was used without the addition of any cationic polypeptides. Transformation of bacteria was carried out as described in Example 17. Briefly, subcloning efficient DH5 cells from Invitrogen were transformed. Ten microliters of cells were mixed with 0.1 ml of YP medium (10 g/L peptone, 5 g/L yeast extract, and 5 g/L NaCl). The cells were pipeted in the center of a YP plate (same as above plus 15.0 g/L agar) and allowed to dry in a laminar flow hood. The pSB1 plus or minus cationic polypeptides was introduced into the cells using an aerosol beam injector as described in parent U.S. patent application Ser. No. 09/724,265. After about 1 hour of incubation at 37° C., the aerosol beamed cells plus the YP medium were cut out as a slab and placed on YP medium with 10 mg/1 tetracycline. Plasmid SB1 harbors resistance to the antibiotic tetracycline. The cells were grown overnight at 37° C. and then evaluated for the presence of colonies that were growing on the medium. If the plasmid pSB1 were sheared it would not replicate in the cell, thus no antibiotic resistant colony would have formed, however, if the plasmid was not sheared it could replicate once inside the cell and an antibiotic colony would have appeared.

bacterial cells = format: cell-based, E. coli
Protocol: Transformation of bacteria using the method of the invention was accomplished as follows: competent E. coli DH5 alpha (Gibco BRL) or HB101 cells were thawed on ice and 5 to 50 microliters were combined with 0.2 ml LB broth. The mixture was pipetted to the center of a plate of LB agar (1.5%) containing 100 mg/l ampicillin and allowed to dry. Aerosol beam parameters were the same as those described previously (Example 1) except as noted in this Example. A pUC-derived plasmid encoding for resistance to the antibiotic ampicillin was delivered to the bacterial cells, as is known in the art. The concentration of DNA ranged from about 1.0 to 1000 μg/ml in 10 mM Tris (pH7.0) or a carbohydrate molecule, such as 1 g/l sucrose. The nebulizing pressure was from about 10 to about 40 psi, preferably 30 to 40 psi. The entrainment temperature was maintained in a given experiment and ranged between experiments from about 24° to about 55° C., and was preferably maintained at about 42° to about 55° C. and most preferably at about 55° C. Various sample flow rates were tested ranging from about 0.25 ml/hour to about 2.0 ml/hour (about 4 μl/min. to about 33 μl/min.). Preferably the flow rate was about 8.0 μl/minute to about 17.0 μl/minute.
Nucleic acid and protein were simultaneously delivered into bacterial cells. Preparation of bacteria and parameters for the aerosol beam apparatus were the same as described previously for delivery of DNA into bacteria (Example 12). The same buffer, plasmid, and plasmid concentration was used as described in the transformation of bacteria. Ribonuclease A (RNASE A) (Sigma cat. no. R6513) was added to the DNA sample at a final concentration of 2.5 μg/ml.
As a control, RNASE A at the same concentration used for beaming was pipetted on the cells after the cells were beamed with DNA only. […] To verify that the RNASE A was not degrading the plasmid, the plasmid treated with RNASE A was run on a standard 1% agarose gel. After staining the DNA with ethidium bromide, the DNA appeared intact and no degradation was evident. […]

[2] = 1 microgram pSB1 in 1.0 ml plus 2.0 ul of 20 ug/ul cationic polypeptide
[3] = 1 microgram pSB1 in 1.0 ml plus 1.0 ul of 2.0 ug/ul polyamine

O=P([O-])(O)O.[K+] [KH2PO4]
effect on embryogenic soybean callus ([1]; 500 and 1000 mg/l added to B1-30 with myoinositol and coconut water, with and without phytic acid): Beneficial effects

O=P(O)(O)O[C@H]1[C@H](OP(=O)(O)O)[C@@H](OP(=O)(O)O)[C@H](OP(=O)(O)O)[C@@H](OP(=O)(O)O)[C@H]1OP(=O)(O)O [phytic acid, inositolhexaphosphoric acid]
rate of growth of embryogenic callus ([1]; 1, 5, 10, 50, 100, 250, 500 and 1000 mg/l in B1-30, initial culture passage and/or maintenance as stock culture): significantly increased
growth of soybean callus after initial starch exudation ([1]; 1 gm/l in B1-30, range of genotypes): grew very vigorously
effect on embryogenic callus ([1]; 3000 mg/l, callus browned and died): clear detrimental effect

Poly-L-Lysine
transformed colonies growing per plate (DH5 cells; [2]): about 500 colonies per plate

NCCCNCCCCNCCCN [spermine]
transformed colonies growing per plate (DH5 cells; [3]): about 500 colonies per plate

NCCCCNCCCN [spermidine]
transformed colonies growing per plate (DH5 cells; [3]): about 500 colonies per plate

O[C@H]1[C@H](O)[C@@H](O)[C@H](O)[C@@H](O)[C@H]1O [myoinositol]
effect on growth of embryogenic soybean callus ([1]; up to 10 g/l, alone or in combination with coconut water): pronounced and beneficial effect

Poly-L-Ornithine
transformed colonies growing per plate (DH5 cells; [2]): about 500 colonies per plate

B1: RNASE A: Ribonuclease A (Sigma cat. no. R6513) (protein, UniProt P61823 27-150, looked up)
Ribonuclease pancreatic: KETAAAKFERQHMDSSTSAASSSNYCNQMMKSRNLTKDRCKPVNTFVHESLADVQAVCSQKNVACKNGQTNCYQSYSTMSITDCRETGSSKYPNCAYKTTQANKHIIVACEGNPYVPVHFDASV
colonies on medium containing ampicillin (bacterial cells; 2.5 μg/ml beamed together with DNA): no colonies were observed
colonies on medium containing ampicillin (bacterial cells; same concentration pipetted on the cells after beaming with DNA only): transformed colonies grew

B2: inactivated RNASE A: RNASE A inactivated with diethylpyrocarbonate (DEP) (protein, UniProt P61823 27-150, looked up)
Ribonuclease pancreatic: B1 Ribonuclease pancreatic
modifications: inactivated with diethylpyrocarbonate
transformation of bacteria (bacterial cells; RNASE A inactivated with diethylpyrocarbonate, beamed with DNA): normal transformation of bacteria
